Columns and labels:
[1] = intramolecular disulfide formation by ambient air oxidation of bis-Cys peptides on SiO2 array surface after side-chain deprotection (TFA/TMS-OTf) and NH3-gas DKP detachment; fraction oxidized from MALDI relative peak intensities; details: the molecule shown is the open-chain precursor, none (dry film on SiO2, ambient air), other, 18.0 h, scale: fraction oxidized
[2] = test system: Ferredoxin NADP+ Reductase (FNR); test: FNR counter screen on linear and lactam constrained peptide microarrays; format: binding; details: 10.0 nM protein applied to the array; for FNR Lactam, log 10 transformed median intensity: lactam constrained library peptide; for FNR Linear, log 10 transformed median intensity: linear library peptide
Text: (§1) Diaphorase is NAD(P)H dehydrogenase (UniProtKB: P15559) encoded by the NQO1 gene. Diaphorase has utility as a model enzyme; for which peptide based synthetic affinity agents to diaphorase are required. A 3.3 million feature peptide array was used to identify potential binding partner peptides for diaphorase. Ferredoxin NADP+ Reductase (FNR) and Ferredoxin are included as counter screens for a specific application, while immunoglobulin depleted human serum (Non-Immunoglobulin Serum Components or NISC) was used as a complex mixture to control for generally sticky peptides.
(§2) Peptide arrays were prepared for protein binding by pretreating the arrays in PBST for 30 min at […]. Direct labeled diaphorase (Alexa Fluor™ 555), direct labeled FNR (Alexa Fluor™ 555) and biotinylated ferredoxin were applied to the arrays at 1.0 and 10.0 nM along with direct labeled NISC at 0.001 mg/mL for 1 hr at 37° C. Arrays were washed 3× with PBST and Streptavidin-Alexa Fluor™ 555 was applied to the biotinylated ferredoxin and streptavidin alone arrays. All other arrays received PBST and were incubated for 1 hr at 37° C. Arrays were washed with PBST and p53Ab1-Alexa Fluor™ 647 applied to all arrays to illuminate the edge fiducials for 10 min at 37° C. Following the final incubation arrays were washed in PBST and water, dried and imaged on the ImageXpress ([…]). Triplicate arrays were used for the subsequent analysis except for when rejection of an array was necessary due to the presence of artifacts. Data were analyzed using a custom R script.

[3] = target: Streptavidin (Streptomyces avidinii, UniProt P22629); test: Streptavidin-Alexa Fluor 555 alone on linear and lactam constrained peptide microarrays; format: binding; details: for Streptavidin Lactam, log 10 transformed median intensity: lactam constrained library peptide; for Streptavidin Linear, log 10 transformed median intensity: linear library peptide
Protocol: as §2

[4] = test system: Ferredoxin; test: Biotinylated ferredoxin counter screen on linear and lactam constrained peptide microarrays; format: binding; details: 10.0 nM biotinylated protein, detected with Streptavidin-Alexa Fluor 555; for Ferredoxin Lactam, log 10 transformed median intensity: lactam constrained library peptide; for Ferredoxin Linear, log 10 transformed median intensity: linear library peptide
Text: as §1, §2

[5] = test system: Non-Immunoglobulin Serum Components (NISC); test: NISC counter screen on linear and lactam constrained peptide microarrays; format: binding, human; details: 0.001 mg/mL NISC applied to the array; for NISC Lactam, log 10 transformed median intensity: lactam constrained library peptide; for NISC Linear, log 10 transformed median intensity: linear library peptide
Text: as §1, §2
Peptides were also selected based on the difference in log 10 transformed intensities between diaphorase and NISC as the counter screen agent (LFGdiaphorase minus LFGNISC). Intensities for 10.0 nM diaphorase and 0.001 mg/mL NISC are shown in FIG. 29A where intensities plotted are the log 10 transformed median intensity from replicate arrays. Coloring of the points represents the density of features at that intensity using a grey colorscale. Light grey represents areas of low peptide numbers while black represents the intensity having the highest number of peptides. The diagonal line is equivalence line. Selectivity vs NISC was not dependent on cyclization as diaphorase also bound the linear forms for some peptides (Table 4). Three peptides having the highest degree of cyclization in the quality control assay were identified and binding intensities compared to other library peptides having one or two amino acid substitutions (FIG. 30) Each CLUSTAL alignment contains the library peptides having a maximum of two substitutions to the parent peptide. Dark grey highlights indicate a residue conserved in more than 60% of the peptides. Light grey highlights indicate chemically similar amino acids to the conserved residue. The amino acid usage is indicated in the sequence logo above the alignment. Substitutional analysis provides confidence in the array data by indicating which residues are important for binding.

[6] = target: T1, human diaphorase (NQO1) (Homo sapiens, UniProt P15559); test: Alexa Fluor 555-diaphorase binding to linear and lactam constrained peptide microarrays; details: 10.0 nM protein applied to the array; for Diaphorase Lactam, log 10 transformed median intensity: lactam constrained library peptide; for Diaphorase Linear, log 10 transformed median intensity: linear library peptide
T1 construct: purchased SigmaAldrich
Text: as §1
Two wafers from the same synthesis batch were obtained where one wafer was prepared with the lactam chemistry and constrained into a cyclized form. The degree of cyclization was confirmed using the biotinylation assay described in Examples 9, 17, and 19.
as §2
Intensities plotted are the log 10 transformed median intensity from replicate arrays. Coloring of the points represents the density of features at that intensity using a gray-scale map. Light grey represents areas of low peptide numbers while black represents the intensity having the highest number of peptides. The diagonal line is equivalence line. […] CLUSTAL sequence alignment (FIG. 27B) of the sequences indicated similarities in amino acid composition. Highlighted amino acids are conserved in over 60% of the peptides for that position or are a chemically similar amino acid (ie: F and Y).
The sequences contain similar amino acid usage. Four peptides having the highest degree of cyclization in the quality control assay were identified and binding intensities compared to other library peptides having one or two amino acid substitutions as shown in FIG. 28. Substitutional analysis provides confidence in the array data by indicating which residues are important for binding. Dark grey boxes highlight indicate a residue conserved in more than 60% of the peptides. Light grey boxes highlight indicate chemically similar amino acids to the conserved residue. RFI is the intensity is the median replicate log 10 intensity for the 10.0 nM Diaphorase.

T1 sequence (P15559 whole entry): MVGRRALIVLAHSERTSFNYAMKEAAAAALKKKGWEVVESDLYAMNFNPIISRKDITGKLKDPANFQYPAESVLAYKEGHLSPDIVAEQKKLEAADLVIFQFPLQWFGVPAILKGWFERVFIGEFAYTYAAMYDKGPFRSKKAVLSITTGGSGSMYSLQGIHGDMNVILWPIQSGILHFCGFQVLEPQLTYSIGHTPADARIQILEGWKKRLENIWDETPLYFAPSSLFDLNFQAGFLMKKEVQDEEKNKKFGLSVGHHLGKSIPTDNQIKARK
Chain of Streptavidin (P22629 25-183, species assumed): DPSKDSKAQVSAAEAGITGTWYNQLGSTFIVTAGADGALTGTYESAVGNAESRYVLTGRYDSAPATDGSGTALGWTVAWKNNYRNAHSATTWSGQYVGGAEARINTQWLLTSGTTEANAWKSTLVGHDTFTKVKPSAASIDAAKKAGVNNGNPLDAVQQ

| Molecule | ring closure, fraction oxidized by MALDI ([1]; 14-membered ring) | ring closure, fraction oxidized by MALDI ([1]; 8-membered ring) | ring closure, fraction oxidized by MALDI ([1]; 20-membered ring) | FNR Lactam, log 10 transformed median intensity [2] | FNR Linear, log 10 transformed median intensity [2] | Streptavidin Lactam, log 10 transformed median intensity [3] | Streptavidin Linear, log 10 transformed median intensity [3] | Ferredoxin Lactam, log 10 transformed median intensity [4] | Ferredoxin Linear, log 10 transformed median intensity [4] | NISC Lactam, log 10 transformed median intensity [5] | NISC Linear, log 10 transformed median intensity [5] | Diaphorase Lactam, log 10 transformed median intensity [6] | Diaphorase Linear, log 10 transformed median intensity [6] |
| --- | --- | --- | --- | --- | --- | --- | --- | --- | --- | --- | --- | --- | --- |
| COc1cc(OC)c([P+](CC(=O)N[C@@H](CCCCN)C(=O)N[C@@H](CS)C(=O)N2CCC[C@H]2C(=O)NCC(=O)N[C@@H](CS)C(=O)N[C@@H](CC(C)C)C(=O)NCCCC[C@@H]2NC(=O)[C@@H]3CCCN3C2=O)(c2c(OC)cc(OC)cc2OC)c2c(OC)cc(OC)cc2OC)c(OC)c1 | 0.73 | – | – | – | – | – | – | – | – | – | – | – | – |
| COc1cc(OC)c([P+](CC(=O)N[C@@H](CCCCN)C(=O)N[C@@H](CS)C(=O)N[C@@H](CS)C(=O)N[C@@H](CC(C)C)C(=O)NCCCC[C@@H]2NC(=O)[C@@H]3CCCN3C2=O)(c2c(OC)cc(OC)cc2OC)c2c(OC)cc(OC)cc2OC)c(OC)c1 | – | 0.78 | – | – | – | – | – | – | – | – | – | – | – |
| COc1cc(OC)c([P+](CC(=O)N[C@@H](CS)C(=O)N2CCC[C@H]2C(=O)NCC(=O)N[C@@H](CS)C(=O)NCCCC[C@@H]2NC(=O)[C@@H]3CCCN3C2=O)(c2c(OC)cc(OC)cc2OC)c2c(OC)cc(OC)cc2OC)c(OC)c1 | 0.77 | – | – | – | – | – | – | – | – | – | – | – | – |
| COc1cc(OC)c([P+](CC(=O)N[C@@H](CS)C(=O)N[C@@H](CCC(N)=O)C(=O)N2CCC[C@H]2C(=O)NCC(=O)N[C@@H](Cc2ccc(O)cc2)C(=O)N[C@@H](CS)C(=O)NCCCC[C@@H]2NC(=O)[C@@H]3CCCN3C2=O)(c2c(OC)cc(OC)cc2OC)c2c(OC)cc(OC)cc2OC)c(OC)c1 | – | – | 0.75 | – | – | – | – | – | – | – | – | – | – |
| COc1cc(OC)c([P+](CC(=O)N[C@@H](CS)C(=O)N[C@@H](CCC(N)=O)C(=O)N[C@@H](Cc2ccc(O)cc2)C(=O)N[C@@H](CS)C(=O)NCCCC[C@@H]2NC(=O)[C@@H]3CCCN3C2=O)(c2c(OC)cc(OC)cc2OC)c2c(OC)cc(OC)cc2OC)c(OC)c1 | 0.72 | – | – | – | – | – | – | – | – | – | – | – | – |
| COc1cc(OC)c([P+](CC(=O)N[C@@H](CS)C(=O)N[C@H](C(=O)N[C@@H](Cc2c[nH]cn2)C(=O)N[C@@H](CS)C(=O)NCCCC[C@@H]2NC(=O)[C@@H]3CCCN3C2=O)[C@@H](C)O)(c2c(OC)cc(OC)cc2OC)c2c(OC)cc(OC)cc2OC)c(OC)c1 | 0.78 | – | – | – | – | – | – | – | – | – | – | – | – |
| COc1cc(OC)c([P+](CC(=O)N[C@@H](Cc2ccc(O)cc2)C(=O)N[C@@H](CS)C(=O)N2CCC[C@H]2C(=O)NCC(=O)N[C@@H](CS)C(=O)N[C@@H](CO)C(=O)NCCCC[C@@H]2NC(=O)[C@@H]3CCCN3C2=O)(c2c(OC)cc(OC)cc2OC)c2c(OC)cc(OC)cc2OC)c(OC)c1 | 0.76 | – | – | – | – | – | – | – | – | – | – | – | – |
| COc1cc(OC)c([P+](CC(=O)N[C@@H](Cc2ccc(O)cc2)C(=O)N[C@@H](CS)C(=O)N[C@@H](CS)C(=O)N[C@@H](CO)C(=O)NCCCC[C@@H]2NC(=O)[C@@H]3CCCN3C2=O)(c2c(OC)cc(OC)cc2OC)c2c(OC)cc(OC)cc2OC)c(OC)c1 | – | 0.7 | – | – | – | – | – | – | – | – | – | – | – |
| TSFFPGYN [library array peptide, tested lactam constrained and linear] | – | – | – | 2.62 | 2.54 | 2.52 | 2.53 | 2.71 | 2.54 | 3.47 | 2.60 | 4.51 | 2.86 |
| TTFFQPSY [library array peptide, tested lactam constrained and linear] | – | – | – | 2.55 | 2.54 | 2.52 | 2.54 | 2.78 | 2.54 | 3.35 | 2.59 | 4.46 | 2.77 |
| TTFSFSTP [library array peptide, tested lactam constrained and linear] | – | – | – | 2.62 | 2.57 | 2.55 | 2.54 | 2.69 | 2.58 | 3.33 | 2.62 | 4.47 | 2.78 |
| TTLFQTPY [library array peptide, tested lactam constrained and linear] | – | – | – | 2.63 | 2.54 | 2.53 | 2.52 | 2.66 | 2.54 | 3.28 | 2.69 | 4.45 | 2.80 |
| TYPGVYPS [library array peptide, tested lactam constrained and linear] | – | – | – | 2.59 | 2.54 | 2.53 | 2.51 | 2.69 | 2.54 | 3.16 | 2.58 | 4.40 | 2.75 |
| TYPIYGPA [library array peptide, tested lactam constrained and linear] | – | – | – | 2.59 | 2.53 | 2.54 | 2.52 | 2.80 | 2.55 | 3.43 | 2.59 | 4.46 | 2.77 |
| VPSSYNLN [library array peptide, tested lactam constrained and linear] | – | – | – | 2.58 | 2.57 | 2.57 | 2.57 | 2.6 | 2.58 | 2.68 | 2.65 | 4.38 | 3.82 |
